Source: patent publication US20240299400A1, “Transcription Factor GLI1 Inhibitors and Uses Thereof” (University of Connecticut, priority 2023, published 2024)
Like-named read-outs stand apart in the source and are kept apart here.

Key:
GLI1 mRNA expression = test: RT-qPCR GLI1 mRNA expression in Sufu-KO MEFs; assay type: cell-based, mouse; details: for IC50: Mus musculus, Ave ± SEM, read-out: RT-qPCR, IC50 Sufu-KO
PANC-1 (pancreatic) = test: MTS anti-proliferative assay in PANC-1 cells; assay type: cell-based; details: Homo sapiens, PANC-1; Table 8, 48 h, mean ± SEM
PIK3C2A = target: T1, PIK3C2A (Homo sapiens, UniProt O00443); test: Adapta kinase assay, PIK3C2A; assay type: biochemical; details: average of three replicates
T1 construct: purchased ThermoFisher Scientific (Madison, WI, USA), contract service
T1 sequence (O00443 whole entry): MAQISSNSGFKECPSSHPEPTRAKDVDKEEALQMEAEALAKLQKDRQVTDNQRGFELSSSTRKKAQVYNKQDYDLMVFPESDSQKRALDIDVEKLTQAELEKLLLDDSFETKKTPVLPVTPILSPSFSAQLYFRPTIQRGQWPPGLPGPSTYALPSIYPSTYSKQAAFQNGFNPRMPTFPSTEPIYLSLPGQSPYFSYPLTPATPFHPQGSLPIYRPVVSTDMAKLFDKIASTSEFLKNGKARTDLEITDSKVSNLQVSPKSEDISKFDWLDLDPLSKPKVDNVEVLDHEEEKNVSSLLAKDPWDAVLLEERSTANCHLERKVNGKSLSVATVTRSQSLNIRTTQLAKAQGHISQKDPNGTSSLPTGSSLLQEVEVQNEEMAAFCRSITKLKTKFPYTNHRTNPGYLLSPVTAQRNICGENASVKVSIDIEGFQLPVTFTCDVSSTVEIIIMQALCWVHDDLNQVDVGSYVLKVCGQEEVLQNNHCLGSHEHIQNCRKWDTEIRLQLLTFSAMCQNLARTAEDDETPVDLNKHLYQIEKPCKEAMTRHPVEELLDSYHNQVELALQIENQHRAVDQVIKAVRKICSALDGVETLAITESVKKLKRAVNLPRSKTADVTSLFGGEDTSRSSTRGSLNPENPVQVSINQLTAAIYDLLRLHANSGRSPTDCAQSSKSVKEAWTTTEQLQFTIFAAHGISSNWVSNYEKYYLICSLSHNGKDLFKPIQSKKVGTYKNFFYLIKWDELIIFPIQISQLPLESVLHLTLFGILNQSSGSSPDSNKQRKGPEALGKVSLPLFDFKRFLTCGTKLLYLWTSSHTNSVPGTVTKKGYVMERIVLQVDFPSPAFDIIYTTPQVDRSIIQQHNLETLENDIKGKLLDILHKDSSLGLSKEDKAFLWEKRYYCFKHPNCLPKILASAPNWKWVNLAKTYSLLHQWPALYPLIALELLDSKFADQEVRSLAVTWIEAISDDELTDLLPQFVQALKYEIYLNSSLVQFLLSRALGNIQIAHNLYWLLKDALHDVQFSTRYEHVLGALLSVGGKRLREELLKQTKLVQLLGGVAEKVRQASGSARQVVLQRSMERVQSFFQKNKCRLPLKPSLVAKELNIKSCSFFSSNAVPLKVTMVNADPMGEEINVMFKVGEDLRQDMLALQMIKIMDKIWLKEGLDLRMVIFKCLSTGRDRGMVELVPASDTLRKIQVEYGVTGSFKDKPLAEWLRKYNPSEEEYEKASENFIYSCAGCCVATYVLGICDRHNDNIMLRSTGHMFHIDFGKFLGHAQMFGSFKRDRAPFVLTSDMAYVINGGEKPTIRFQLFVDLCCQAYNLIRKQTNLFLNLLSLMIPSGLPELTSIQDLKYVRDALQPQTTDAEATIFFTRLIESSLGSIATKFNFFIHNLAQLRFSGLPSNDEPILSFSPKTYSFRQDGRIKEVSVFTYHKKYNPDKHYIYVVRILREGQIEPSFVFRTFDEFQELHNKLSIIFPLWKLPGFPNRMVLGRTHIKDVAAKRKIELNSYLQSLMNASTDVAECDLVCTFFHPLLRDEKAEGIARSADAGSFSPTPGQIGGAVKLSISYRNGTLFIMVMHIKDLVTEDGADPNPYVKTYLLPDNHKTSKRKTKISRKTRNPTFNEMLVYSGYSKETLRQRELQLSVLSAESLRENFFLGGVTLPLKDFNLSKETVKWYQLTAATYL
Method: (§1) Kinase screening experiments. Kinase inhibition/binding experiments were performed by ThermoFisher Scientific (Madison, WI, USA) as a contract service, utilizing their default protocols [G. Yernale, A comprehensive review on the biological interest of quinoline and its derivatives. Bioorg. Med. Chem. 32 (2021) 115973]. Briefly, for ZLyte assay, compound in DMSO (100 nL), kinase buffer (2.4 μL), peptide/kinase mixture (5 μL), and ATP solution (2.5 μL) were mixed in a black 384-well plate. Following a 30 s plate shake to mix reagents, the kinase assay mixture was incubated at RT for 60 min. Following addition of the development reagent solution to each well, another 60 min incubation was performed at RT for reaction development. Fluorescent signal was recorded and subsequently analyzed.
For the Adapta assay, compounds in DMSO (100 nL), 30 mM HEPES buffer (2.4 μL), substrate/kinase mixture (5 μL), and ATP solution (2.5 μL) were mixed in a white 384-well plate. Following a 30 s plate shake to mix the reagents and a 1 min centrifuge at 1000 g, the kinase assay mixture was incubated at RT for 60 min. Following addition of the detection mix (5 μL) to each well, 30 s plate shaking, and 1 min centrifuge at 1000 g, another 60 min incubation was performed at RT for equilibration. Fluorescent signals were recorded and subsequently analyzed.

AKT1 = target: T2, AKT1 (Homo sapiens, UniProt P31749); test: ZLyte kinase assay, AKT1; assay type: biochemical; details: average of three replicates
T2 construct: purchased ThermoFisher Scientific (Madison, WI, USA), contract service
T2 sequence (P31749 whole entry): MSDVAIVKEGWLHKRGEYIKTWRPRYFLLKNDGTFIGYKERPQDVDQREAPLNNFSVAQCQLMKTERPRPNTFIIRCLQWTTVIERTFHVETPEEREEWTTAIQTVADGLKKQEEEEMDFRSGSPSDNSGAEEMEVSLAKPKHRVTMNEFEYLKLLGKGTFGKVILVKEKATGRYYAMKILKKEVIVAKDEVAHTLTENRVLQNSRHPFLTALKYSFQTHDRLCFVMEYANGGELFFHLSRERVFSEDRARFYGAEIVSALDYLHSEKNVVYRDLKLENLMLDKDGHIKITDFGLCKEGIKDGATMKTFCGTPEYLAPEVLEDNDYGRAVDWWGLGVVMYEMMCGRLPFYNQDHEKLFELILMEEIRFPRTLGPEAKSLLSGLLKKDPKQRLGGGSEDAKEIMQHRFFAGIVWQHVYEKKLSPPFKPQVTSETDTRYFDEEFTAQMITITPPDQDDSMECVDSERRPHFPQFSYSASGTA
Method: as §1

CSNK2A1 = target: T3, CSNK2A1 (Homo sapiens, UniProt P68400); test: ZLyte kinase assay, CSNK2A1; assay type: biochemical; details: average of three replicates
T3 construct: purchased ThermoFisher Scientific (Madison, WI, USA), contract service
Method: as §1

DYRKIA = target: T4, DYRKIA (Homo sapiens, UniProt Q13627); test: ZLyte kinase assay, DYRKIA; assay type: biochemical; details: average of three replicates
T4 construct: purchased ThermoFisher Scientific (Madison, WI, USA), contract service
Method: as §1

DYRK1B = target: T5, DYRK1B (Homo sapiens, UniProt Q9Y463); test: ZLyte kinase assay, DYRK1B; assay type: biochemical; details: average of three replicates
T5 construct: purchased ThermoFisher Scientific (Madison, WI, USA), contract service
Method: as §1

GSK3B = target: T6, GSK3B (Homo sapiens, UniProt P49841); test: ZLyte kinase assay, GSK3B; assay type: biochemical; details: average of three replicates
T6 construct: purchased ThermoFisher Scientific (Madison, WI, USA), contract service
Method: as §1

IGF1R = target: T7, IGF1R (Homo sapiens, UniProt P08069); test: ZLyte kinase assay, IGF1R; assay type: biochemical; details: average of three replicates
T7 construct: purchased ThermoFisher Scientific (Madison, WI, USA), contract service
T7 sequence (P08069 31-1367): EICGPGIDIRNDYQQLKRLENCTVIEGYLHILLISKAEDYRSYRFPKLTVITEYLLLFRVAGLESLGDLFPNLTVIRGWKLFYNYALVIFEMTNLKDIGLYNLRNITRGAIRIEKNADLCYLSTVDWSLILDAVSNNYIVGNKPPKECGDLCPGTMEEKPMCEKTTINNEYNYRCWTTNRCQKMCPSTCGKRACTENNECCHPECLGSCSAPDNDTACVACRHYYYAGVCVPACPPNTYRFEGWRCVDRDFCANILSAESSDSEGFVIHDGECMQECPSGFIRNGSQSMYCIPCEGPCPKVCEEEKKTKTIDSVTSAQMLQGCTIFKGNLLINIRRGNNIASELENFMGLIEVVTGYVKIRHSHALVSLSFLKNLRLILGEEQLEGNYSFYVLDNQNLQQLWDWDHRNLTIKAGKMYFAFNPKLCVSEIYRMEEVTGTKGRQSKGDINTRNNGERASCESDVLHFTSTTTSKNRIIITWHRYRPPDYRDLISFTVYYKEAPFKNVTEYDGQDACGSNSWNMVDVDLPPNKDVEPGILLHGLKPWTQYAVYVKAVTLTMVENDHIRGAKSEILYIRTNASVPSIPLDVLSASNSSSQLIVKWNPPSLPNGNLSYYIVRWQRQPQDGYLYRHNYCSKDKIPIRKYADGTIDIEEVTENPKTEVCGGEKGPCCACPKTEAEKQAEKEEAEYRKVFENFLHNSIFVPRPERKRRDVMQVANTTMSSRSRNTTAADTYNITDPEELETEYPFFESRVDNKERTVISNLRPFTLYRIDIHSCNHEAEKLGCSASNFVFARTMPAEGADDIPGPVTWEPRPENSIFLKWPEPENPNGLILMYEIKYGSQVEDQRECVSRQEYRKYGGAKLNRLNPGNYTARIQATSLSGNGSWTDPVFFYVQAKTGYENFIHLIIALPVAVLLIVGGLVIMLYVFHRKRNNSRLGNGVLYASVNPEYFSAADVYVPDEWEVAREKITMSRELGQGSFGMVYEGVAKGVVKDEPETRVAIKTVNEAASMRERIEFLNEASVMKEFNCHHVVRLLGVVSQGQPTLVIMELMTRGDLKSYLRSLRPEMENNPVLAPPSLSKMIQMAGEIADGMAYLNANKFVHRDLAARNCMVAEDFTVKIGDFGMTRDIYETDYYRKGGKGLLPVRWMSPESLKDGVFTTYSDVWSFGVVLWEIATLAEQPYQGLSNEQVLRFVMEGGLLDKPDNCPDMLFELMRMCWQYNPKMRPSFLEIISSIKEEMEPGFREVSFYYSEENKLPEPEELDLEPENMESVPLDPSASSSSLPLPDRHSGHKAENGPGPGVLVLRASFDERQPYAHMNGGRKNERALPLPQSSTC
Method: as §1

MAP2K1 = target: T8, MAP2K1 (Homo sapiens, UniProt Q02750); test: ZLyte kinase assay, MAP2K1; assay type: biochemical; details: average of three replicates
T8 construct: purchased ThermoFisher Scientific (Madison, WI, USA), contract service
Method: as §1

MAP2K2 = target: T9, MAP2K2 (Homo sapiens, UniProt P36507); test: ZLyte kinase assay, MAP2K2; assay type: biochemical; details: average of three replicates
T9 construct: purchased ThermoFisher Scientific (Madison, WI, USA), contract service
T9 sequence (P36507 whole entry): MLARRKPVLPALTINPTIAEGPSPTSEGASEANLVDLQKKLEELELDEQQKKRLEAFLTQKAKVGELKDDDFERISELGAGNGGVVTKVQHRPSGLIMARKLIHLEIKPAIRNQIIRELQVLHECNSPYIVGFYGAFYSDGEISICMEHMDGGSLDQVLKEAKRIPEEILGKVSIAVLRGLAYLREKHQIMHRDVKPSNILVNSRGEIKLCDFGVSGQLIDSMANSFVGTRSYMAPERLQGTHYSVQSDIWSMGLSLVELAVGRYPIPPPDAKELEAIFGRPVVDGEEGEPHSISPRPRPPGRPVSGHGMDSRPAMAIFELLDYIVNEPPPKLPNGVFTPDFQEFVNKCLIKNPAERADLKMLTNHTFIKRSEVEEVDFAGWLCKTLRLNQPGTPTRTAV
Method: as §1

MAPK1 = target: T10, MAPK1 (Homo sapiens, UniProt P28482); test: ZLyte kinase assay, MAPK1; assay type: biochemical; details: average of three replicates
T10 construct: purchased ThermoFisher Scientific (Madison, WI, USA), contract service
T10 sequence (P28482 whole entry): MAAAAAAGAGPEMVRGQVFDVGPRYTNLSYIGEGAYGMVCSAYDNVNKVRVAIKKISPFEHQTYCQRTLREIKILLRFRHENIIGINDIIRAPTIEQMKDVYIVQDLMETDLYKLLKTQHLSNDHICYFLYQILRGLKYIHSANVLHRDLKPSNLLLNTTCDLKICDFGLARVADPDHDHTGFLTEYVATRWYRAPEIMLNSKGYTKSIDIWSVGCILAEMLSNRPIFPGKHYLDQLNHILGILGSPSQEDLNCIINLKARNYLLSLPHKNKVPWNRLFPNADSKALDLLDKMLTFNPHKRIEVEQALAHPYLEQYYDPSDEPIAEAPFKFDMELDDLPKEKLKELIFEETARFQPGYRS
Method: as §1

MAPK3 = target: T11, MAPK3 (Homo sapiens, UniProt P27361); test: ZLyte kinase assay, MAPK3; assay type: biochemical; details: average of three replicates
T11 construct: purchased ThermoFisher Scientific (Madison, WI, USA), contract service
Method: as §1

MET = target: T12, MET (Homo sapiens, UniProt P08581); test: ZLyte kinase assay, MET; assay type: biochemical; details: average of three replicates
T12 construct: purchased ThermoFisher Scientific (Madison, WI, USA), contract service
Method: as §1

RPS6KB1 = target: T13, RPS6KB1 (Homo sapiens, UniProt P23443); test: ZLyte kinase assay, RPS6KB1; assay type: biochemical; details: average of three replicates
T13 construct: purchased ThermoFisher Scientific (Madison, WI, USA), contract service
T13 sequence (P23443 whole entry): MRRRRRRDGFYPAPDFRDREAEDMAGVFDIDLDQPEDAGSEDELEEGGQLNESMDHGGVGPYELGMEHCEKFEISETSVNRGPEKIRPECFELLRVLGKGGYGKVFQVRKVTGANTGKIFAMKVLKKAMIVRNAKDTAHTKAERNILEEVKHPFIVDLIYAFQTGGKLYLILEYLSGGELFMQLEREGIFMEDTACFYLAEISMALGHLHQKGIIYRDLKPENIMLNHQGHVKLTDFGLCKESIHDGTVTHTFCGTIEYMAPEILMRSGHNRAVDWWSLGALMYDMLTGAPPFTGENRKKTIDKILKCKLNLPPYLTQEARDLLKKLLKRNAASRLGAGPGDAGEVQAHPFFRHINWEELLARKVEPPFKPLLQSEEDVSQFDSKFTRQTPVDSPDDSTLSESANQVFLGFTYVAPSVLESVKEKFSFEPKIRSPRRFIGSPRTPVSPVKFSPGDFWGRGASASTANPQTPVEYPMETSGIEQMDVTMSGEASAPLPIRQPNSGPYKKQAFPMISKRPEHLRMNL
Method: as §1

Row | IC50 (GLI1 mRNA expression; Table 5, GLI1 mRNA) | GI50 (PANC-1 (pancreatic)) | inhibition at 1 µM (PIK3C2A) | inhibition at 1 µM (AKT1) | inhibition at 1 µM (CSNK2A1) | inhibition at 1 µM (DYRKIA) | inhibition at 1 µM (DYRK1B) | inhibition at 1 µM (GSK3B) | inhibition at 1 µM (IGF1R) | inhibition at 1 µM (MAP2K1) | inhibition at 1 µM (MAP2K2) | inhibition at 1 µM (MAPK1) | inhibition at 1 µM (MAPK3) | inhibition at 1 µM (MET) | inhibition at 1 µM (RPS6KB1) | IC50 (GLI1 mRNA expression; Table 7, GLI1 mRNA) | SMILES | anti-GLI1 activity in Sufu-KO cells (in words) (GLI1 mRNA expression)
1 | > 25000 nM | > 100 µM | 3% | 4% | 5% | 4% | 3% | -1% | 9% | 7% | 12% | 10% | 4% | 5% | -2% | – | CCN(CC)c1ccc(C(Nc2ccccn2)c2ccc3ccc(C)nc3c2OC)cc1 (stereo not shown) [Compound 20, N-((4-Diethylaminophenyl)(8-methoxy-2-methylquinolin-7-yl)methyl)pyridin-2-amine] | inactive
2 | – | 0.83 ± 0.1 µM | -1% | 7% | 2% | 6% | 3% | 1% | 12% | 14% | 14% | 7% | 2% | 4% | 0% | 2900 ± 1900 nM | Cc1ccc2ccc(C(Nc3ccccn3)c3ccncc3)c(O)c2n1 (stereo not shown) [Compound 39, 7-((Pyridin-4-yl)(pyridin-2-ylamino)methyl)-2-methylquinolin-8-ol] | –
3 | – | 23.2 ± 4.3 µM | 0% | 10% | 2% | 4% | 5% | 4% | 9% | 14% | 16% | 12% | 7% | 4% | -1% | 820 ± 270 nM | Cc1ccc2ccc(C(Nc3ccccn3)c3ccc(N4CCCC4=O)cc3)c(O)c2n1 (stereo not shown) [Compound 48, 7-((4-(2-Oxopyrrolidin-1-yl)phenyl)(pyridin-2-ylamino)methyl)-2-methylquinolin-8-ol] | –
